Tests used:
Echovirus = assay: Antiviral activity against Echovirus; format: functional, organism-based
Enterovirus = assay: Antiviral activity against Enterovirus; format: functional, organism-based
Coxsackievirus = assay: Antiviral activity against Coxsackievirus; format: functional, organism-based
Human rhinovirus sp. = assay: Antiviral activity against Human rhinovirus; format: functional, organism-based
Picornaviridae = assay: Antiviral activity against Human picornavirus; format: functional, organism-based
Human gammaherpesvirus 8 = assay: Antiviral activity against Human herpesvirus 8; format: functional, organism-based
Human alphaherpesvirus 1 = assay: Antiviral activity against Herpes simplex virus 1; format: functional, organism-based; conditions: Human alphaherpesvirus 1
Human alphaherpesvirus 3 = assay: Antiviral activity against Varicella zoster virus; format: functional, organism-based
Human betaherpesvirus 5 = assay: Antiviral activity against Human cytomegalovirus; format: functional, organism-based; conditions: Human betaherpesvirus 5
Human alphaherpesvirus 2 = assay: Antiviral activity against Herpes simplex virus 2; format: functional, organism-based; conditions: Human alphaherpesvirus 2
Human gammaherpesvirus 4 = assay: Antiviral activity against Epstein-Barr virus; format: functional, organism-based
Influenza B virus = assay: Antiviral activity against influenza B virus; format: functional, organism-based
Influenza A virus = assay: Antiviral activity against influenza H1N1 virus; format: functional, organism-based
Influenza C virus = assay: Antiviral activity against Influenza C virus; format: functional, organism-based
H2N2 subtype = assay: Antiviral activity against influenza H2N2 virus; format: functional, organism-based; conditions: Influenza A virus
[1] = tested on: unidentified influenza virus; assay: Antiviral activity against influenza virus; format: functional, organism-based
[2] = tested on: Human immunodeficiency virus 1; assay: Antiviral activity against HIV1; format: functional, organism-based
Respirovirus muris = assay: Antiviral activity against Sendai virus; format: functional, organism-based
Enterovirus C = assay: Antiviral activity against Poliovirus; format: functional, organism-based
Vaccinia virus = assay: Antiviral activity against Vaccinia virus; format: functional, organism-based, Orthopoxvirus vaccinia
Human adenovirus 2 = assay: Antiviral activity against Human adenovirus 2; format: functional, organism-based; conditions: Human mastadenovirus C
Cowpox virus = assay: Antiviral activity against Cowpox virus; format: functional, organism-based
Human betaherpesvirus 6 [3] = assay: Antiviral activity against Human herpesvirus 6B; format: functional, organism-based
Human betaherpesvirus 6 [4] = assay: Antiviral activity against Human herpesvirus 6A; format: functional, organism-based
Hepatitis C virus = assay: Antiviral activity against Hepatitis C virus c; format: functional, organism-based, Hepacivirus hominis
Influenza A virus H3N2 = assay: Antiviral activity against influenza H3N2 virus; format: functional, organism-based, H3N2 subtype
Human respirovirus 1 = assay: Antiviral activity against Human parainfluenza virus 1; format: functional, organism-based
Human respirovirus 3 = assay: Antiviral activity against Human parainfluenza virus 3; format: functional, organism-based
[5] = tested on: Human parainfluenza virus 2; assay: Antiviral activity against Human parainfluenza virus 2; format: functional, organism-based; conditions: Human orthorubulavirus 2
Monkeypox virus = assay: Antiviral activity against Monkeypox virus; format: functional, organism-based
Simplexvirus = assay: Antiviral activity against Herpes simplex virus; format: functional, organism-based
H5N1 subtype = assay: Antiviral activity against influenza H5N1 virus; format: functional, organism-based; conditions: Influenza A virus
Camelpox virus = assay: Antiviral activity against Camelpox virus; format: functional, organism-based

`CCO/N=C/c1ccc(OCCC2CCN(c3ccc(Cl)nn3)CC2)cc1` was tested, and the IC50 (Echovirus) was 0.067 µM, the IC50 (Enterovirus) was 0.001 µM and the IC50 (Coxsackievirus) was 0.825 µM. For the same molecule, the IC50 (Human rhinovirus sp.) was 0.026 µM.

`Nc1nc2ccc(/C(=N/Nc3ccccc3)c3ccccc3)nn2c1-c1ccc(F)cc1` was tested, and the IC50 (Picornaviridae) was 10 µM.

`Nc1ccn(/C=C2/CC2(CO)CO)c(=O)n1` showed an IC50 (Human gammaherpesvirus 8) of 197 µM, an IC50 (Human alphaherpesvirus 1) of 448 µM and an IC50 (Human alphaherpesvirus 3) of 448 µM. For the same molecule, the IC50 (Human betaherpesvirus 5) was 14 µM, the IC50 (Human alphaherpesvirus 2) was 448 µM and the IC50 (Human gammaherpesvirus 4) was 45 µM.

In the case of `Nc1nc(N)c2ncn(/C=C3\CC3(CO)CO)c2n1`, the IC50 (Human gammaherpesvirus 8) is reported as 165 µM, the IC50 (Human alphaherpesvirus 1) is reported as 381 µM and the IC50 (Human alphaherpesvirus 3) is reported as 39 µM. For the same molecule, the IC50 (Human betaherpesvirus 5) was 3.3 µM and the IC50 (Human alphaherpesvirus 2) was 381 µM.

`Nc1ncnc2c1ncn2/C=C1/CC1(CO)CO` gave an IC50 (Human gammaherpesvirus 8) of 57 µM, an IC50 (Human alphaherpesvirus 1) of 404 µM and an IC50 (Human alphaherpesvirus 3) of 404 µM. The IC50 (Human betaherpesvirus 5) was 12 µM, the IC50 (Human alphaherpesvirus 2) was 404 µM and the IC50 (Human gammaherpesvirus 4) was 166 µM.

For `NC(=O)c1nc(F)cnc1O`, the IC50 (Influenza B virus) was 0.089 µM, the IC50 (Influenza A virus) was 0.16 µM and the IC50 (Influenza C virus) was 0.044 µM. For the same molecule, the IC50 (H2N2 subtype) was 0.048 µM.

`O=c1n(Cc2nc3ccccc3n2CCCCO)c2cnccc2n1C1CC1` gave an IC50 [1] of 200 µM, an IC50 [2] of 200 µM and an IC50 (Respirovirus muris) of 25 µM. The IC50 (Enterovirus C) was 200 µM and the IC50 (Human rhinovirus sp.) was 200 µM.

`Nc1ncnc2c1ncn2C[C@@H](CO)OCP(=O)(O)O` showed an IC50 (Vaccinia virus; Orthopoxvirus vaccinia) of 3.5 µM, an IC50 (Human adenovirus 2) of 0.63 µM and an IC50 (Cowpox virus) of 5 µM.

For `Nc1nc2c(ncn2/C=C2\CC2(CO)CO)c(=O)[nH]1`, the IC50 (Human gammaherpesvirus 8) was 190 µM, the IC50 (Human alphaherpesvirus 1) was 380 µM and the IC50 (Human alphaherpesvirus 3) was 380 µM. It also gave an IC50 (Human betaherpesvirus 6 [3]) of 43 µM, an IC50 (Human betaherpesvirus 5) of 123 µM and an IC50 (Human alphaherpesvirus 2) of 380 µM. The IC50 (Human betaherpesvirus 6 [4]) was 116 µM and the IC50 (Human gammaherpesvirus 4) was 119 µM.

`Nc1nc2ccc(/C(=N/O)c3ccccc3)nn2c1-c1ccccc1` showed an IC50 (Picornaviridae) of 0.04 µM.

`Nc1nc2ccc(/C(=N/O)c3ccccc3)nn2c1-c1ccc(F)cc1` showed an IC50 (Picornaviridae) of 0.05 µM.

For `C=C[C@@H]1C[C@]1(NC(=O)[C@@H]1C[C@@H](Oc2cc(-c3ccccc3)nc3cc(OC)ccc23)CN1C(=O)[C@H](CC(C)C)NC(=O)OC(C)(C)C)C(=O)O`, the IC50 (Hepatitis C virus) was 0.492 µM.

Molecule `CCC(CC)C(NC(C)=O)C1C(NC(=N)N)CC(C(=O)O)C1O` (stereo unspecified) has an IC50 (Influenza A virus H3N2) of 0.14 µM.

`C/C=C\[C@@H]1C[C@H](C(=O)O)N[C@H]1[C@@H](NC(C)=O)[C@](C)(CCC)OC` gave an IC50 (Human respirovirus 1) of 14.1 µM.

With `CNC(=O)/C=C(\c1ccc(C)cc1)c1ccc2nc(NCC(=O)NC)c(-c3ccc(F)cc3)n2n1` the IC50 (Picornaviridae) was 0.23 µM.

For `CC(C)C(=O)N[C@H]1[C@H]([C@H](O)[C@H](O)CO)OC(C(=O)O)=C[C@@H]1NS(=O)(=O)C(Cl)Cl`, the IC50 (Human respirovirus 3) was 2 µM, the IC50 (Human respirovirus 1) was 1.2 µM and the IC50 [5] was 1.9 µM. For the same molecule, the IC50 (Respirovirus muris) was 1.8 µM.

In the case of `OC[C@H]1O[C@@H](n2c(Br)nc3cc(Cl)c(Cl)cc32)[C@H](O)[C@@H]1O`, the IC50 (Human betaherpesvirus 6 [3]) is reported as 125 µM and the IC50 (Human betaherpesvirus 6 [4]) is reported as 125 µM.

`CNC(=O)/C=C(\c1ccccc1)c1ccc2nc(NCC(=O)NC)c(-c3ccc(F)cc3)n2n1` was tested, and the IC50 (Picornaviridae) was 0.11 µM.

For `CC(C)C(=O)N[C@H]1[C@H]([C@H](O)[C@H](O)CO)OC(C(=O)O)=C[C@@H]1N=[N+]=[N-]`, the IC50 [5] was 2.2 µM and the IC50 (Respirovirus muris) was 0.1 µM.

`O[C@@H]1[C@H](O)[C@H](O)CO[C@H]1n1c(Br)nc2cc(Cl)c(Cl)cc21` was tested, and the IC50 (Human betaherpesvirus 6 [3]) was 95 µM and the IC50 (Human betaherpesvirus 6 [4]) was 125 µM.

For `CNC(=O)/C=C(\c1ccc(OC)cc1)c1ccc2nc(NCC(=O)NC)c(-c3ccc(F)cc3)n2n1`, the IC50 (Picornaviridae) was 0.6 µM.

For `Nc1ccn(C[C@@H](CO)OCP(=O)(O)O)c(=O)n1` (stereo in doubt; form 1) [CIDOFOVIR], the IC50 (Monkeypox virus) was 505 µM, the IC50 (Simplexvirus) was 3.3 µM and the IC50 (Vaccinia virus) was 23 µM. The IC50 (Human betaherpesvirus 5) was 0.06 µM, the IC50 (Human adenovirus 2) was 3.1 µM and the IC50 (Cowpox virus) was 48 µM.

Molecule `NC12CC3CC(CC(C3)C1)C2` [AMANTADINE] has an IC50 (Influenza B virus) of 50 µM, an IC50 (Influenza A virus) of 50 µM and an IC50 (Influenza A virus H3N2) of 0.63 µM.

For `Nc1ccn(C[C@H]2COP(=O)(O)CO2)c(=O)n1` [CYCLIC CIDOFOVIR], the IC50 (Monkeypox virus) was 760 µM, the IC50 (Vaccinia virus; Orthopoxvirus vaccinia) was 21 µM and the IC50 (Cowpox virus) was 51 µM.

`Nc1nc2c(ncn2COC(CO)CO)c(=O)[nH]1` [GANCICLOVIR] was tested, and the IC50 (Vaccinia virus; Orthopoxvirus vaccinia) was 392 µM and the IC50 (Human adenovirus 2) was 35 µM.

Molecule `Nc1ccn([C@@H]2CS[C@H](CO)O2)c(=O)n1` [LAMIVUDINE] has an IC50 (Vaccinia virus; Orthopoxvirus vaccinia) of 436 µM, an IC50 (Human adenovirus 2) of 100 µM and an IC50 (Cowpox virus) of 436 µM.

`CC(C)Nc1nc2cc(Cl)c(Cl)cc2n1[C@H]1O[C@@H](CO)[C@H](O)[C@@H]1O` [MARIBAVIR] was tested, and the IC50 (Human betaherpesvirus 6 [3]) was 106 µM and the IC50 (Human betaherpesvirus 6 [4]) was 125 µM.

With `CCC(CC)O[C@@H]1C=C(C(=O)O)C[C@H](N)[C@H]1NC(C)=O` [OSELTAMIVIR CARBOXYLATE] the IC50 (Influenza B virus) was 0.015 µM, the IC50 (Influenza A virus) was 0.0039 µM and the IC50 (Influenza A virus H3N2) was 0.0006 µM. For the same molecule, the IC50 (H2N2 subtype) was 0.00017 µM.

`CCOC(=O)C1=C[C@@H](OC(CC)CC)[C@H](NC(C)=O)[C@@H](N)C1` [OSELTAMIVIR] gave an IC50 (Influenza B virus) of 2.1 µM, an IC50 (Influenza A virus) of 2.5 µM and an IC50 [1] of 45 µM. The IC50 (H5N1 subtype) was 34 µM, the IC50 (Influenza A virus H3N2) was 0.26 µM and the IC50 (H2N2 subtype) was 1.45 µM.

In the case of `NC(=O)c1ncn([C@@H]2O[C@H](CO)[C@@H](O)[C@H]2O)n1` [RIBAVIRIN], the IC50 (Monkeypox virus) is reported as 145 µM, the IC50 (Influenza B virus) is reported as 19 µM and the IC50 (Influenza A virus) is reported as 7.7 µM. The IC50 (Camelpox virus) was 215 µM, the IC50 (Vaccinia virus; Orthopoxvirus vaccinia) was 281 µM and the IC50 (Human adenovirus 2) was 100 µM. For the same molecule, the IC50 (Influenza A virus H3N2) was 20 µM, the IC50 (Cowpox virus) was 410 µM and the IC50 (H2N2 subtype) was 13.8 µM.

`CC(=O)N[C@H]1[C@H]([C@H](O)[C@H](O)CO)OC(C(=O)O)=C[C@@H]1NC(=N)N` [ZANAMIVIR] was tested, and the IC50 (H5N1 subtype) was 0.22 µM, the IC50 (Influenza A virus H3N2) was 0.68 µM and the IC50 (H2N2 subtype) was 0.76 µM.

Reference: ChEMBL document CHEMBL1136837, “Unified QSAR approach to antimicrobials. 4. Multi-target QSAR modeling and comparative multi-distance study of the giant components of antiviral drug-drug complex networks” (Bioorg Med Chem, 2009)
